Experimental data taken from patent US12435072B2, “Compounds” (Vicore Pharma AB, priority 2019, dated 2025).

Assays:
[1] = biological target: T1, human recombinant AT2 receptor (Homo sapiens, UniProt P50052); experiment: Binding to AT2 receptor, radiometric scintillation assay (Eurofins); settings: ligand 125I CGP 42112A, tested at 1, 10, 100 and 1000 nM
T1 construct: purchased Eurofins ITEM26
T1 sequence (P50052 1-363): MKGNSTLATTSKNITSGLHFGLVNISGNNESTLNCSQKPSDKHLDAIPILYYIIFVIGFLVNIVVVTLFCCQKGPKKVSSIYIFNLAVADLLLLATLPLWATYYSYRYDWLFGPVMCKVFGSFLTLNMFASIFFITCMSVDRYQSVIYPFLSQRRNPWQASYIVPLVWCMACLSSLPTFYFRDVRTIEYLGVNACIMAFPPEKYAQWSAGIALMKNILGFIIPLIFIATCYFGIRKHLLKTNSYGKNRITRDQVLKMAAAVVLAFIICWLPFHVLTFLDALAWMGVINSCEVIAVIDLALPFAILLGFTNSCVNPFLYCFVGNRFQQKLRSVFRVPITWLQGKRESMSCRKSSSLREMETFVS
Method: (§1) Compounds were evaluated for binding to the human recombinant AT2 and AT1 receptor according to Eurofins protocol ITEM26 and ITEM24 using a radiometric scintillation assay.

[2] = biological target: T2, human recombinant AT1 receptor (Homo sapiens, UniProt P30556); experiment: Binding to AT1 receptor, radiometric scintillation assay (Eurofins); settings: ligand 125I(sar1,Ile8)-AT-II, tested at 1 and 10 μM
T2 construct: purchased Eurofins ITEM24
T2 sequence (P30556 1-359): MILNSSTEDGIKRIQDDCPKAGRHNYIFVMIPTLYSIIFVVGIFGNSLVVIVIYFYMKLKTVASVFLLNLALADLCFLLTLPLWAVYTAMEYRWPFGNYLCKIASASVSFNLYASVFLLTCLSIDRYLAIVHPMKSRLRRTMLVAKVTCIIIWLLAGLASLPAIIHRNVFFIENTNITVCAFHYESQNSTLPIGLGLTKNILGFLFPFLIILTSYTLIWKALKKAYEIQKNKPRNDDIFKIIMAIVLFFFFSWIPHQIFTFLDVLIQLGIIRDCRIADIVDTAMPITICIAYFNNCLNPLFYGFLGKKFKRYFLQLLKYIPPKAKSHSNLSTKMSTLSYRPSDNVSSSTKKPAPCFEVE
Method: as §1

CYP1A = biological target: T3, CYP1A (Homo sapiens, UniProt P05177); experiment: CYP inhibition in human liver microsomes, CYP1A; format: in vitro ADME; settings: probe phenacetin, substrate phenacetin, read-out: CYP1A Inh %
T3 construct: incubated with human liver microsomes; tissue Eurofins ITEMG232; host or cells: human liver microsomes
T3 sequence (P05177 1-516): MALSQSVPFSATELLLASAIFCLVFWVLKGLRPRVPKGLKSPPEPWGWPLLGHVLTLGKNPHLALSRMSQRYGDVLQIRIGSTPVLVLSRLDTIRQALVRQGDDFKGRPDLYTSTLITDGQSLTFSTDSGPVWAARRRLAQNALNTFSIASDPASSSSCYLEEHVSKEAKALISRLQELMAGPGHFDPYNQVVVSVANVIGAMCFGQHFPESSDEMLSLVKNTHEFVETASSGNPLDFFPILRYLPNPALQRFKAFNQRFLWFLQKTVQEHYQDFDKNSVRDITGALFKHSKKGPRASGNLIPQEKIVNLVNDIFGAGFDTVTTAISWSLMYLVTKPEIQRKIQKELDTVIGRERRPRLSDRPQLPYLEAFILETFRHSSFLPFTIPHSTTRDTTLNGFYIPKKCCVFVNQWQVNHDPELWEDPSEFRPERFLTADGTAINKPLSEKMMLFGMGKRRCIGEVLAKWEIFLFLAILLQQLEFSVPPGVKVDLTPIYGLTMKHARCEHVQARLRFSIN
Method: (§2) The following substrates were used: CYP1A phenacetin, CYP2B6 bupropion, CYP2C8 paclitaxel and amodiaquine, CYP2C9 diclofenac, CYP2C19 omeprazole, CYP2D6 dextromethorphan, CYP3A midazolam and testosterone. At the end of the incubation, the formation of metabolite was monitored by HPLC-MS/MS as the peak area response.

CYP2B6 = biological target: T4, CYP2B6 (Homo sapiens, UniProt P20813); experiment: CYP inhibition in human liver microsomes, CYP2B6; format: in vitro ADME; settings: probe bupropion, substrate bupropion, read-out: CYP2B6 Inh %
T4 construct: incubated with human liver microsomes; tissue Eurofins ITEMG232; host or cells: human liver microsomes
T4 sequence (P20813 1-491): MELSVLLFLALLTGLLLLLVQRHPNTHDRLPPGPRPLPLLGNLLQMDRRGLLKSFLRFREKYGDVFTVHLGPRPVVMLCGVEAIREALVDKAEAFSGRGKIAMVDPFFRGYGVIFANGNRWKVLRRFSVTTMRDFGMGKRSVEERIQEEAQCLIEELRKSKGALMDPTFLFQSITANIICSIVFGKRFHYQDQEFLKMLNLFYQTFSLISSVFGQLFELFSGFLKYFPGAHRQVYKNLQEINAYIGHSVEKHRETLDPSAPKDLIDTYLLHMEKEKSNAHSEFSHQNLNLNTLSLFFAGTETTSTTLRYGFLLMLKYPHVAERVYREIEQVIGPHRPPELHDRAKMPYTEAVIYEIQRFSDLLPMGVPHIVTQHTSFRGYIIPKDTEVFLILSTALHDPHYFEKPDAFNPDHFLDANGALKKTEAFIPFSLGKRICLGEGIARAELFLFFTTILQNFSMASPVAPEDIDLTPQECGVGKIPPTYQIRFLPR
Method: as §2

CYP2C19 = biological target: T5, CYP2C19 (Homo sapiens, UniProt P33261); experiment: CYP inhibition in human liver microsomes, CYP2C19; format: in vitro ADME; settings: substrate omeprazole; for inhibition at 10 µM: probe omeprazole, read-out: CYP2C19 Inh %
T5 construct: incubated with human liver microsomes; tissue Eurofins ITEMG232; host or cells: human liver microsomes
Method: as §2

CYP2C8 = biological target: T6, CYP2C8 (Homo sapiens, UniProt P10632); experiment: CYP inhibition in human liver microsomes, CYP2C8; format: in vitro ADME; settings: probe paclitaxel and amodiaquine, substrate paclitaxel and amodiaquine, read-out: CYP2C8 Inh %
T6 construct: incubated with human liver microsomes; tissue Eurofins ITEMG232; host or cells: human liver microsomes
T6 sequence (P10632 1-490): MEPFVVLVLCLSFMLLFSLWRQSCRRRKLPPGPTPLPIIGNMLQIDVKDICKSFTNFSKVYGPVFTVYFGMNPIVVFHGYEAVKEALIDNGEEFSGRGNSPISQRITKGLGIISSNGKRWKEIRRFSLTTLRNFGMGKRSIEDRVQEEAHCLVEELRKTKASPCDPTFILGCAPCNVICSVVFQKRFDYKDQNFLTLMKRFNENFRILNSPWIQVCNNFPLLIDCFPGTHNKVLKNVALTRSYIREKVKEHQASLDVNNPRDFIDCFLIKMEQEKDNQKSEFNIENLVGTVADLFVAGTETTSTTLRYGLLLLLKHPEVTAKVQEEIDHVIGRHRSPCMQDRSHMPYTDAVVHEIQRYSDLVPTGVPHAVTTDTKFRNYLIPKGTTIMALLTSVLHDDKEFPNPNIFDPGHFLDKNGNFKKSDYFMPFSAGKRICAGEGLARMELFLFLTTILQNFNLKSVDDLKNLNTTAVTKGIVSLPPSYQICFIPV
Method: as §2

CYP2D6 = biological target: T7, CYP2D6 (Homo sapiens, UniProt P10635); experiment: CYP inhibition in human liver microsomes, CYP2D6; format: in vitro ADME; settings: probe dextromethorphan, substrate dextromethorphan, read-out: CYP2D6 Inh %
T7 construct: incubated with human liver microsomes; tissue Eurofins ITEMG232; host or cells: human liver microsomes
Method: as §2

CYP3A4&5 = experiment: CYP inhibition in human liver microsomes, CYP3A4&5 (testosterone); format: in vitro ADME; settings: probe testosterone, substrate testosterone, read-out: CYP3A4&5 testosterone Inh %
Method: as §2

CYP2C9 [3] = biological target: T8, CYP2C9 (Homo sapiens, UniProt P11712); experiment: CYP inhibition in human liver microsomes, CYP2C9; format: in vitro ADME; set-up: incubated with human liver microsomes; tissue Eurofins ITEMG232; host or cells: human liver microsomes; settings: substrate diclofenac; for inhibition at 10 µM: probe diclofenac, read-out: CYP2C9 Inh %
Method: as §2

CYP3A4 [4] = biological target: T9, CYP3A4 (Homo sapiens, UniProt P08684); experiment: CYP inhibition in human liver microsomes, CYP3A4 (midazolam); format: in vitro ADME; set-up: incubated with human liver microsomes; tissue Eurofins ITEMG232; host or cells: human liver microsomes; settings: probe midazolam, substrate midazolam, read-out: CYP3A4 midazolam Inh %
Method: as §2

CYP2C9 [5] = biological target: T8, CYP2C9; experiment: CYP inhibition found during development of C21, CYP 2C9; format: in vitro ADME; settings: statement in background
CYP3A4 [6] = biological target: T9, CYP3A4; experiment: CYP inhibition found during development of C21, CYP 3A4; format: in vitro ADME; settings: statement in background
[7] = Metabolic hydrolysis found during development of C21; format: in vitro ADME; settings: statement in background

T7 sequence (P10635 whole entry): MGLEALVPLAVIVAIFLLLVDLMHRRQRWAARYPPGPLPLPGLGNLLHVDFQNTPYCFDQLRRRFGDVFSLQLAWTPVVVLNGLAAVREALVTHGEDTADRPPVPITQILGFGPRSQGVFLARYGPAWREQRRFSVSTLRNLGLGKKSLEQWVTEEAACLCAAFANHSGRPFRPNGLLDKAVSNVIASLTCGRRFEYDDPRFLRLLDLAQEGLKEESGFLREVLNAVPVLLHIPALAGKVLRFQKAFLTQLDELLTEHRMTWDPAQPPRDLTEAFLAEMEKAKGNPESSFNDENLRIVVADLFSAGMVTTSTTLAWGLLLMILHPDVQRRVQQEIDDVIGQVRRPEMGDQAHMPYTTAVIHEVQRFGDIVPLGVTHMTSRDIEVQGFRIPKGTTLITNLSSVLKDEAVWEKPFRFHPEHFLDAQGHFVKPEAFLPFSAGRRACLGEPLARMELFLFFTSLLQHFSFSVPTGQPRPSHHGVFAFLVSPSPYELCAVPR
T5 sequence (P33261 whole entry): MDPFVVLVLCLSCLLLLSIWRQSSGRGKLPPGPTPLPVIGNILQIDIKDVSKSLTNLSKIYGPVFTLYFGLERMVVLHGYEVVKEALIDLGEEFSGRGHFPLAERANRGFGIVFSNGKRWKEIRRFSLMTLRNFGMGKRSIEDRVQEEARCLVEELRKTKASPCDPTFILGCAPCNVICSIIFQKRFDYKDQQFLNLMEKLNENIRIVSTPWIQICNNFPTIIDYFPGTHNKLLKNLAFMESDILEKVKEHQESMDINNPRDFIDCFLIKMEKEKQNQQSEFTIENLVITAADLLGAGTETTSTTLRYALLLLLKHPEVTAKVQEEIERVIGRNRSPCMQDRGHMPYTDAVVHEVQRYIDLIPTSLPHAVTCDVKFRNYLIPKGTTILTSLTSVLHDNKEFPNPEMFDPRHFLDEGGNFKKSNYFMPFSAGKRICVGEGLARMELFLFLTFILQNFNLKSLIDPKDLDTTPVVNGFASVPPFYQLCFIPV
T9 sequence (P08684 whole entry): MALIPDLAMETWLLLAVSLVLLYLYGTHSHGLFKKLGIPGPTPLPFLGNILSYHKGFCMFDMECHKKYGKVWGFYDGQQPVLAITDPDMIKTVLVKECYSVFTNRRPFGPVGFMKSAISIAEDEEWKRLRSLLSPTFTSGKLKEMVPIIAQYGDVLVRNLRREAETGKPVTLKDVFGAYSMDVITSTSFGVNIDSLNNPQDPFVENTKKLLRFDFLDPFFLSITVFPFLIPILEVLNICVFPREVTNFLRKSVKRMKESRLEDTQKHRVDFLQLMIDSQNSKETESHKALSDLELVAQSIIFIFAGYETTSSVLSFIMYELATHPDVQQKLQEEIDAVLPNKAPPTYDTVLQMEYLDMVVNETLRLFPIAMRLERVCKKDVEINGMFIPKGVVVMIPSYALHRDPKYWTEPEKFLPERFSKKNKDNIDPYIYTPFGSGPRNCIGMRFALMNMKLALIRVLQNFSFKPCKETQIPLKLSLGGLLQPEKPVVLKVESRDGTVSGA
T8 sequence (P11712 whole entry): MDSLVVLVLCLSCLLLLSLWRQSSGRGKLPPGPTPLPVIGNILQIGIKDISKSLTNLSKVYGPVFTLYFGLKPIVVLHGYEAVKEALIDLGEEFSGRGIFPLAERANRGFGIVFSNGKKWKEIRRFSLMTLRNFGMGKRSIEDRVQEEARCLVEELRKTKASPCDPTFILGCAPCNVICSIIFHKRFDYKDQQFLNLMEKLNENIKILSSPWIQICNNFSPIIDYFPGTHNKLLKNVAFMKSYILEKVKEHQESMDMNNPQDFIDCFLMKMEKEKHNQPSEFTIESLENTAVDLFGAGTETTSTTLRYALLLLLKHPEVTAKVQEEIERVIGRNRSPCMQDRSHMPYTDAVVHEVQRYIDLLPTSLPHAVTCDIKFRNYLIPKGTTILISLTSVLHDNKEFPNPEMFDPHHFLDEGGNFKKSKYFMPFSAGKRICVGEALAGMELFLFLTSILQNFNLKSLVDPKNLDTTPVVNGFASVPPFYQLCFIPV

| Structure (SMILES) | IC50 [1] [µM] | IC50 [2] [µM] | inhibition at 10 µM (CYP1A) [%] | inhibition at 10 µM (CYP2B6) [%] | inhibition at 10 µM (CYP2C19) [%] | inhibition at 10 µM (CYP2C8) [%] | inhibition at 10 µM (CYP2D6) [%] | inhibition at 10 µM (CYP3A4&5) [%] | inhibition at 10 µM (CYP2C9 [3]) [%] | inhibition at 10 µM (CYP3A4 [4]) [%] | CYP2C19 Inh % (CYP2C19; 10 μM) [%] | inhibition of CYP 2C9 (CYP2C9 [5]) | inhibition of CYP 3A4 (CYP3A4 [6]) | metabolic hydrolysis [7] | CYP2C9 Inh % (CYP2C9 [3]; 10 μM) [%] |
| --- | --- | --- | --- | --- | --- | --- | --- | --- | --- | --- | --- | --- | --- | --- | --- |
| Cc1cn(Cc2ccc(-c3cc(CC(C)C)sc3S(=O)(=O)NC(=O)NCc3ccccc3)cc2)c(C)n1 [Example 10, 1-Benzyl-3-(3-{p-[(2,4-dimethyl-1H-imidazol-1-yl)methyl]phenyl}-5-isobutyl-2-thienylsulfonyl)urea] | 0.0906 | 6 | -5 | 15 | 61 | 48 | 31 | 29 | 50 | 25 | – | – | – | – | – |
| Cc1nccn1Cc1ccc(-c2cc(CC(C)C)sc2S(=O)(=O)NC(=O)NCc2cc(F)cc(F)c2)nc1 [Example 23, 1-[(3,5-Difluorophenyl)methyl]-3-(5-isobutyl-3-{5-[(2-methyl-1H-imidazol-1-yl)methyl]-2-pyridyl}-2-thienylsulfonyl)urea] | 0.357 | 16 | – | – | – | – | – | – | – | – | – | – | – | – | – |
| Cc1nccn1Cc1ncc(-c2cc(CC(C)C)sc2S(=O)(=O)NC(=O)NCc2ccccn2)cn1 [Example 22, 3-(5-Isobutyl-3-{2-[(2-methyl-1H-imidazol-1-yl)methyl]-5-pyrimidinyl}-2-thienylsulfonyl)-1-[(2-pyridyl)methyl]urea] | 0.0169 | 51 | – | – | – | – | – | – | – | – | – | – | – | – | – |
| Cc1nccn1Cc1ccc(-c2cc(CC(C)C)sc2S(=O)(=O)NC(=O)NCCc2c[nH]cn2)cc1F [Example 16, 1-(3-{3-Fluoro-4-[(2-methyl-1H-imidazol-1-yl)methyl]phenyl}-5-isobutyl-2-thienylsulfonyl)-3-[2-(1H-imidazol-4-yl)ethyl]urea] | 0.0074 | 57 | 23 | 88 | 91 | 65 | 88 | 58 | 79 | 91 | – | – | – | – | – |
| CC(C)Cc1cc(-c2ccc(Cn3ccnc3C(C)C)c(F)c2)c(S(=O)(=O)NC(=O)NCCCC(F)(F)F)s1 [Example 42, 1-{[3-(3-fluoro-4-{[2-(propan-2-yl)-1H-imidazol-1-yl]methyl}phenyl)-5-(2-methylpropyl)thiophen-2-yl]sulfonyl}-3-(4,4,4-trifluorobutyl)urea trifluoroacetic acid] | 0.0029 | 5 | – | – | – | – | – | – | – | – | – | – | – | – | – |
| Cc1cn(Cc2ccc(-c3cc(CC(C)C)sc3S(=O)(=O)NC(=O)NCc3ccccn3)cc2)c(C)n1 [Example 11, 3-(3-{p-[(2,4-Dimethyl-1H-imidazol-1-yl)methyl]phenyl}-5-isobutyl-2-thienylsulfonyl)-1-[(2-pyridyl)methyl]urea] | 0.119 | 18 | 5 | 14 | 53 | 34 | 44 | 17 | 29 | 22 | – | – | – | – | – |
| CCCCOC(=O)NS(=O)(=O)c1sc(CC(C)C)cc1-c1ccc(Cn2ccnc2)cc1 [Example C21, N-butyloxycarbonyl-3-(4-imidazol-1-ylmethylphenyl)-5-isobutylthiophene-2-sulfon-amide] | – | – | – | – | – | – | – | – | – | – | 96.0 | potent inhibitor | potent inhibitor | rapidly hydrolysed to an inactive sulfonamide metabolite | 99.0 |
| Cc1nccn1Cc1ccc(-c2cc(CC(C)C)sc2S(=O)(=O)NC(=O)NCCC(F)(F)F)nc1 [Example 19, 3-(5-Isobutyl-3-{5-[(2-methyl-1H-imidazol-1-yl)methyl]-2-pyridyl}-2-thienylsulfonyl)-1-(3,3,3-trifluoropropyl)urea] | 0.127 | 83 | – | – | – | – | – | – | – | – | – | – | – | – | – |
| Cc1nccn1Cc1ccc(-c2cc(CC(C)C)sc2S(=O)(=O)NC(=O)N(C)Cc2ccccn2)cc1F [Example 17, 3-(3-{3-Fluoro-4-[(2-methyl-1H-imidazol-1-yl)methyl]phenyl}-5-isobutyl-2-thienylsulfonyl)-1-methyl-1-[(2-pyridyl)methyl]urea] | 0.0095 | 58 | 29 | 20 | 54 | 83 | 22 | 18 | 48 | 65 | – | – | – | – | – |
